Results on three compounds are retold here after patent publication US12173309B2, “Compounds for increasing genome editing efficiency” (Max-Planck-Gesellschaft zur Förderung der Wissenschaften …, priority 2017, dated 2024).

The subject of test [1] is 409-B2 iCRISPR-Cas9D10A iPSCs. In words: Precise genome editing (PGE) efficiency with iCRISPR Cas9D10A double nicking and ssODN donors, Illumina sequencing/CRISPResso. The conditions noted are these: Cas9D10A; for PGE increase (mean change vs control): 20 μM NU7026, 0.01 μM TSA, 0.5 μM MLN4924, 5 μM NSC 15520, CRISPY mix = all four. It counts as cell-based, human. The procedure: (§1) FIG. 1: Genome editing and analysis flowchart. iCRISPR 409-B2 iPSCs are treated with 2 μg/ml doxycycline at least for 2 days to induce Cas9 or Cas9D10A expression. Reverse transfection with RNAiMAX, gRNA (7.5 nM each), ssODN (10 nM) and the small molecules to be evaluated is carried out in a 96 well plate for 1 day. The amount of cells used gives ˜80% confluency. Cells are then expanded for 3 days with regular media change. After harvest follows DNA extraction, PCR amplification of targeted loci, Illumina sequencing and CRISPResso (Pinello et al. 2016) sequence analysis for amount of indels and precise genome editing.
(§2) Cells were incubated with media containing 2 μg/ml doxycycline (Clontech, 631311) 2 days prior to lipofection. Lipofection (reverse transfection) was done using the alt-CRISPR manufacturer's protocol (IDT) with a final concentration of 7.5 nM of each gRNA and 10 nM of the respective ssODN. In brief, 0.75 μl RNAiMAX (Invitrogen, 13778075) and the respective oligonucleotides were separately diluted in 25 μl OPTI-MEM (Gibco, 1985-062) each and incubated at room temperature for 5 min. Both dilutions were mixed to yield 50 μl of OPTI-MEM including RNAiMAX, gRNAs and ssODNs. The lipofection mix was incubated for 20-30 min at room temperature. During incubation cells were dissociated using EDTA for 5 min and counted using the Countess Automated Cell Counter (Invitrogen). The lipofection mix, 100 μl containing 25.000 dissociated cells in mTeSR1 supplemented with Y-27632, 2 μg/ml doxycycline and the respective small molecule(s) to be tested were throughoutly mixed and put in one well of a 96 well covered with Matrigel Matrix (Corning, 35248). Media was exchanged to regular mTeSR1 media after 24 hours.
(§3) Three days after lipofection cells were dissociated using Accutase (SIGMA, A6964), pelleted, and resuspended in 15 μl QuickExtract (Epicentre, QE0905T). Incubation at 65° C. for 10 min, 68° C. for 5 min and finally 98° C. for 5 min was performed to yield ssDNA as a PCR template. Primers for each targeted loci of CALD1, KATNA1 and SLITRK1 containing adapters for Illumina sequencing were ordered from IDT (Coralville, USA). PCR was done in a T100 Thermal Cycler (Bio-Rad) using the KAPA2G Robust PCR Kit (Peqlab, 07-KK5532-03) with supplied buffer B and 3 μl of cell extract in a total volume of 25 μl. The thermal cycling profile of the PCR was: 95° C. 3 min; 34×(95° 15 sec, 65° C. 15 sec, 72° C. 15 sec); 72° C. 60 sec. P5 and P7 Illumina adapters with sample specific indices were added in a second PCR reaction (Kircher et al. 2012) using Phusion HF MasterMix (Thermo Scientific, F-531L) and 0.3 μl of the first PCR product. The thermal cycling profile of the PCR was: 98° C. 30 sec; 25× (98° 10 sec, 58° C. 10 sec, 72° C. 20 sec); 72° C. 5 min. Amplifications were verified by size separating agarose gel electrophoresis using EX gels (Invitrogen, G4010-11). The indexed amplicons were purified using Solid Phase Reversible Immobilization (SPRI) beads (Meyer, Kircher 2010). Double-indexed libraries were sequenced on a MiSeq (Illumina) giving paired-end sequences of 2×150 bp. After base calling using Bustard (Illumina) adapters were trimmed using leeHom (Renaud et al. 2014).
(§4) CRISPresso (Pinello et al. 2016) was used to analyse sequencing data from CRISPR genome editing experiments for percentage of wildtype, targeted nucleotide substitutions (TNS), indels and mix of TNS and indels. Parameters used for analysis were ‘-w 20’, ‘--min_identity_score 70’ and ‘--ignore_substitutions’ (analysis was restricted to amplicons with a minimum of 70% similarity to the wildtype sequence and to a window of 20 bp from each gRNA; substitutions were ignored, as sequencing errors would be falsely characterized as NHEJ-events). Sequencing data from colonies after single cell seeding (FIGS. 3B and C) was further analyzed by evaluating the actual read sequences using SAMtools. Clonal colonies were differentiated from mixed colonies using sequence read proportions. […]

The subject of test [2] is 409-B2 iCRISPR-Cas9 iPSCs. Nature of the test: PGE efficiency with iCRISPR Cas9 and ssODN donors. In kind it is cell-based, human. As to the method:
as §1, §2, §3, §4

[3] abbreviates: CALD1, 20 μM NU7026, 5 μM NSC 15520.
The mark [4] stands for this setting: KATNA1, 20 μM NU7026, 5 μM NSC 15520.
Setting [5] is: SLITRK1, 20 μM NU7026, 5 μM NSC 15520.

Turning to `NS(=O)(=O)OC[C@@H]1C[C@@H](n2ccc3c(N[C@H]4CCc5ccccc54)ncnc32)C[C@@H]1O` [MLN4924, Pevonedistat], the figures for the “PGE increase (mean change vs control)” value in test [1] (CALD1), in test [1] (KATNA1) and in test [1] (SLITRK1) were 1.2 fold, 1.1 fold and 1.3 fold, respectively. Further, the “additional increase in PGE on addition to the mix of NU7026 and TSA” value in test [1] (0.5 μM MLN4924, p<0.01) stood at 1.3 fold. The “effect on PGE frequency over CALD1, KATNA1 and SLITRK1 compared to controls” value in test [2] (0.01 μM TSA, 0.5 μM MLN4924, 1 μM NSC 19630, 20 μM AICAR, 1 μM RS-1, 1 μM Resveratrol, 1 μM SCR7, 5 μM L755507, 5 μM STL127685, 20 μM B02) is on record as “slight diminishing effect”.

With `CC(C)C1=CC23CCC4C(C)(C(=O)O)CCCC4(C)C2CC1C(C(=O)O)C3C(=O)O` (stereo not shown) [NSC 15520, Fumaropimaric acid], the “PGE increase (mean change vs control)” value in test [1] (CALD1) is 1.4 fold; in test [1] (KATNA1), “no effect”; in test [1] (SLITRK1) it was “no effect”; in test [2] (setting [3]) it was 1.3 fold; in test [2] (setting [4]) it was “no effect”; in test [2] (setting [5]) it was “no effect”. For the same compound, in test [1] (all loci, 5 μM NSC 15520, then 1 μM NSC 19630, 20 μM AICAR, 1 μM RS-1 (FIG. 5A)), the “effect on PGE of further addition to the mix of NU7026, TSA and MLN4924” value was “slightly increased”.

On to `O=c1cc(N2CCOCC2)oc2c1ccc1ccccc12` [NU7026], for which the “PGE increase (mean change vs control)” value was 1.5 fold in test [1] (CALD1); 2.6 fold in test [1] (KATNA1); 2.5 fold in test [1] (SLITRK1); 1.5 fold in test [2] (setting [3]); 1.6 fold in test [2] (setting [4]); 1.2 fold in test [2] (setting [5]). Besides, in test [1] (pooled across CALD1, KATNA1, SLITRK1 (FIG. 5A), p<0.001), the “higher PGE frequency than without the molecules” value is given as 2.3 fold.
